Source: BigSolDB 2.1

## O=C[C@H](O)[C@@H](O)[C@H](O)[C@H](O)CO
In n-decanol, 348.15 K
  solubility (mole fraction): 0.000902
In n-decanol, 353.15 K
  solubility (mole fraction): 0.000984
In n-decanol, 357.15 K
  solubility (mole fraction): 0.00119
In n-decanol, 367.15 K
  solubility (mole fraction): 0.00154
In n-decanol, 372.15 K
  solubility (mole fraction): 0.00178
In n-decanol, 377.15 K
  solubility (mole fraction): 0.00204
In n-decanol, 382.15 K
  solubility (mole fraction): 0.00239
In n-decanol, 387.15 K
  solubility (mole fraction): 0.00264
In n-decanol, 392.15 K
  solubility (mole fraction): 0.00327
In n-dodecanol, 349.15 K
  solubility (mole fraction): 0.000762
In n-dodecanol, 355.15 K
  solubility (mole fraction): 0.000802
In n-dodecanol, 360.15 K
  solubility (mole fraction): 0.000865
In n-dodecanol, 365.15 K
  solubility (mole fraction): 0.0011
In n-dodecanol, 370.15 K
  solubility (mole fraction): 0.0013
In n-dodecanol, 375.15 K
  solubility (mole fraction): 0.0014
In n-dodecanol, 382.15 K
  solubility (mole fraction): 0.00156
In n-dodecanol, 387.15 K
  solubility (mole fraction): 0.00186
In n-dodecanol, 393.15 K
  solubility (mole fraction): 0.00203
In n-octanol, 345.15 K
  solubility (mole fraction): 0.00098
In n-octanol, 355.15 K
  solubility (mole fraction): 0.00153
In n-octanol, 364.15 K
  solubility (mole fraction): 0.00192
In n-octanol, 369.15 K
  solubility (mole fraction): 0.00228
In n-octanol, 374.15 K
  solubility (mole fraction): 0.00241
In n-octanol, 379.15 K
  solubility (mole fraction): 0.0029
In n-octanol, 383.15 K
  solubility (mole fraction): 0.00341
